In US20250059171A1 (Hoffmann-La Roche Inc., priority 2021, published 2025):

Columns and labels:
[1] = target: SARS-CoV-2 3CLpro (Severe acute respiratory syndrome coronavirus 2, UniProt P0DTD1); test: biochemical
[2] = target: HCoV-229E 3CLpro (Human coronavirus 229E, UniProt P0C6X1); test: HCoV-229E 3CLpro inhibition assay (FRET); format: biochemical
[3] = target: MERS-CoV 3CLpro (Middle East respiratory syndrome-related coronavirus, UniProt K9N7C7); test: biochemical
[4] = target: SARS-CoV 3CLpro (Severe acute respiratory syndrome coronavirus, UniProt P0C6X7); test: biochemical

Chain of HCoV-229E 3CLpro (P0C6X1 2966-3267): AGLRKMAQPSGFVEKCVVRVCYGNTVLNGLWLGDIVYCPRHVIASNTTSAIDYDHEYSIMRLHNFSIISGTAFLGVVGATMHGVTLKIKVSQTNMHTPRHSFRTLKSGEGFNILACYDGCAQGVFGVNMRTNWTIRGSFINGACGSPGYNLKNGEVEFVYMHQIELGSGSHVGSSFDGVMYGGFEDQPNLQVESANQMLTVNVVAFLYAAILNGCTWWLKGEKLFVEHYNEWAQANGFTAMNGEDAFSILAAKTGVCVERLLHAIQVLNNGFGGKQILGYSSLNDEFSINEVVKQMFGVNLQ
Chain of MERS-CoV 3CLpro (K9N7C7 3248-3553): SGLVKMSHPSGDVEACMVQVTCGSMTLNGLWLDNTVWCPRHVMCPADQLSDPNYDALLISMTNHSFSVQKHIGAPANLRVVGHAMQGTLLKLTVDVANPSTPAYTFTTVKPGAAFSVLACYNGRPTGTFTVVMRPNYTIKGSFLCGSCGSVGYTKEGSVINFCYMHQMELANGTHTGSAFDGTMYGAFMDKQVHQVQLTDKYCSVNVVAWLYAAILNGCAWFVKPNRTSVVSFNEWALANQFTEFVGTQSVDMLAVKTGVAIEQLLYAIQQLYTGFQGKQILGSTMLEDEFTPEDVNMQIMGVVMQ

## CC(C)(C)[C@H](NC(=O)C1CC(F)(F)C1)C(=O)N1C[C@@H]2CCC[C@@H]2[C@H]1C(=O)NN(C[C@@H]1CCNC1=O)C(=O)[C@H](F)Cl [Example 98, N-[(1S)-1-[(3S,3aS,6aR)-3-[[[(2R)-2-chloro-2-fluoro-acetyl]-[[(3S)-2-oxopyrrolidin-3-yl]methyl]amino]carbamoyl]-3,3a,4,5,6,6a-hexahydro-1H-cyclopenta[c]pyrrole-2-carbonyl]-2,2-dimethyl-propyl]-3,3-difluoro-cyclobutanecarboxamide]
[1]
  IC50: 9 nM
[2]
  IC50: 22 nM
[3]
  IC50: 59 nM
[4]
  IC50: 11 nM

## CC(C)(C)[C@H](NC(=O)[C@@H]1CC1(F)F)C(=O)N1C[C@@H]2CCC[C@@H]2[C@H]1C(=O)NN(C[C@@H]1CCNC1=O)C(=O)[C@H](F)Cl [Example 99, (1S)—N-[(1S)-1-[(3S,3aS,6aR)-3-[[[(2R)-2-chloro-2-fluoro-acetyl]-[[(3S)-2-oxopyrrolidin-3-yl]methyl]amino]carbamoyl]-3,3a,4,5,6,6a-hexahydro-1H-cyclopenta[c]pyrrole-2-carbonyl]-2,2-dimethyl-propyl]-2,2-difluoro-cyclopropanecarboxamide]
[1]
  IC50: 8 nM
[2]
  IC50: 30 nM
[3]
  IC50: 81 nM
[4]
  IC50: 12 nM

## CC(C)(C)[C@H](NC(=O)[C@H]1CC1(F)F)C(=O)N1C[C@@H]2CCC[C@@H]2[C@H]1C(=O)NN(C[C@@H]1CCNC1=O)C(=O)[C@H](F)Cl [Example 100, (1R)—N-[(1S)-1-[(3S,3aS,6aR)-3-[[[(2R)-2-chloro-2-fluoro-acetyl]-[[(3S)-2-oxopyrrolidin-3-yl]methyl]amino]carbamoyl]-3,3a,4,5,6,6a-hexahydro-1H-cyclopenta[c]pyrrole-2-carbonyl]-2,2-dimethyl-propyl]-2,2-difluoro-cyclopropanecarboxamide]
[1]
  IC50: 8 nM
[2]
  IC50: 32 nM
[3]
  IC50: 77 nM
[4]
  IC50: 14 nM

## CC(C)(C)[C@H](NC(=O)[C@@H]1CC1(F)F)C(=O)N1C[C@@H]2CCC[C@@H]2[C@H]1C(=O)NN(C[C@@H]1CCNC1=O)C(=O)[C@@H](F)Cl [Example 101, (1S)—N-[(1S)-1-[(3S,3aS,6aR)-3-[[[(2S)-2-chloro-2-fluoro-acetyl]-[[(3S)-2-oxopyrrolidin-3-yl]methyl]amino]carbamoyl]-3,3a,4,5,6,6a-hexahydro-1H-cyclopenta[c]pyrrole-2-carbonyl]-2,2-dimethyl-propyl]-2,2-difluoro-cyclopropanecarboxamide]
[1]
  IC50: 9 nM
[2]
  IC50: 40 nM
[3]
  IC50: 94 nM
[4]
  IC50: 13 nM

## CC(C)(C)[C@H](NC(=O)C(F)(F)F)C(=O)N1C[C@@H]2CCC[C@@H]2[C@H]1C(=O)NN(C[C@@H]1CCNC1=O)C(=O)[C@@H](F)Cl [Example 102, N-[(1S)-1-[(3S,3aS,6aR)-3-[[[(2S)-2-chloro-2-fluoro-acetyl]-[[(3S)-2-oxopyrrolidin-3-yl]methyl]amino]carbamoyl]-3,3a,4,5,6,6a-hexahydro-1H-cyclopenta[c]pyrrole-2-carbonyl]-2,2-dimethyl-propyl]-2,2,2-trifluoro-acetamide]
[1]
  IC50: 12 nM
[2]
  IC50: 112 nM
[3]
  IC50: 207 nM
[4]
  IC50: 16 nM

## CC(C)(C)[C@H](NC(=O)C1(F)CC1)C(=O)N1C[C@@H]2CCC[C@@H]2[C@H]1C(=O)NN(C[C@@H]1CCNC1=O)C(=O)[C@@H](F)Cl [Example 103, N-[(1S)-1-[(3S,3aS,6aR)-3-[[[(2S)-2-chloro-2-fluoro-acetyl]-[[(3S)-2-oxopyrrolidin-3-yl]methyl]amino]carbamoyl]-3,3a,4,5,6,6a-hexahydro-1H-cyclopenta[c]pyrrole-2-carbonyl]-2,2-dimethyl-propyl]-1-fluoro-cyclopropanecarboxamide]
[1]
  IC50: 13 nM
[2]
  IC50: 167 nM
[3]
  IC50: 372 nM
[4]
  IC50: 25 nM

## CC(C)(C)[C@H](NC(=O)[C@H]1CC1(F)F)C(=O)N1C[C@@H]2CCC[C@@H]2[C@H]1C(=O)NN(C[C@@H]1CCNC1=O)C(=O)[C@@H](F)Cl [Example 104, (1R)—N-[(1S)-1-[(3S,3aS,6aR)-3-[[[(2S)-2-chloro-2-fluoro-acetyl]-[[(3S)-2-oxopyrrolidin-3-yl]methyl]amino]carbamoyl]-3,3a,4,5,6,6a-hexahydro-1H-cyclopenta[c]pyrrole-2-carbonyl]-2,2-dimethyl-propyl]-2,2-difluoro-cyclopropanecarboxamide]
[1]
  IC50: 12 nM
[2]
  IC50: 55 nM
[3]
  IC50: 128 nM
[4]
  IC50: 20 nM

## CC[C@H](C)[C@H](NC(=O)C1(F)CCC1)C(=O)N1C[C@H]2[C@@H]([C@H]1C(=O)NN(C[C@@H]1CCNC1=O)C(=O)[C@H](F)Cl)C2(C)C [Example 105, N-[(1S,2S)-1-[(1R,2S,5S)-2-[[[(2R)-2-chloro-2-fluoro-acetyl]-[[(3S)-2-oxopyrrolidin-3-yl]methyl]amino]carbamoyl]-6,6-dimethyl-3-azabicyclo[3.1.0]hexane-3-carbonyl]-2-methyl-butyl]-1-fluoro-cyclobutanecarboxamide]
[1]
  IC50: 8 nM
[2]
  IC50: 27 nM
[3]
  IC50: 71 nM
[4]
  IC50: 11 nM

## CC[C@H](C)[C@H](NC(=O)C1(F)CC1)C(=O)N1C[C@H]2[C@@H]([C@H]1C(=O)NN(C[C@@H]1CCNC1=O)C(=O)[C@@H](F)Cl)C2(C)C [Example 106, N-[(1S,2S)-1-[(1R,2S,5S)-2-[[[(2S)-2-chloro-2-fluoro-acetyl]-[[(3S)-2-oxopyrrolidin-3-yl]methyl]amino]carbamoyl]-6,6-dimethyl-3-azabicyclo[3.1.0]hexane-3-carbonyl]-2-methyl-butyl]-1-fluoro-cyclopropanecarboxamide]
[1]
  IC50: 33 nM
[2]
  IC50: 66 nM
[3]
  IC50: 179 nM
[4]
  IC50: 57 nM

## CC[C@H](C)[C@H](NC(=O)C(F)(F)F)C(=O)N1C[C@H]2[C@@H]([C@H]1C(=O)NN(C[C@@H]1CCNC1=O)C(=O)[C@@H](F)Cl)C2(C)C [Example 107, N-[(1S,2S)-1-[(1R,2S,5S)-2-[[[(2S)-2-chloro-2-fluoro-acetyl]-[[(3S)-2-oxopyrrolidin-3-yl]methyl]amino]carbamoyl]-6,6-dimethyl-3-azabicyclo[3.1.0]hexane-3-carbonyl]-2-methyl-butyl]-2,2,2-trifluoro-acetamide]
[1]
  IC50: 18 nM
[2]
  IC50: 40 nM
[3]
  IC50: 111 nM
[4]
  IC50: 25 nM

## CC[C@H](C)[C@H](NC(=O)C1CC(F)(F)C1)C(=O)N1C[C@H]2[C@@H]([C@H]1C(=O)NN(C[C@@H]1CCNC1=O)C(=O)[C@@H](F)Cl)C2(C)C [Example 108, N-[(1S,2S)-1-[(1R,2S,5S)-2-[[[(2S)-2-chloro-2-fluoro-acetyl]-[[(3S)-2-oxopyrrolidin-3-yl]methyl]amino]carbamoyl]-6,6-dimethyl-3-azabicyclo[3.1.0]hexane-3-carbonyl]-2-methyl-butyl]-3,3-difluoro-cyclobutanecarboxamide]
[1]
  IC50: 43 nM
[2]
  IC50: 50 nM
[3]
  IC50: 127 nM
[4]
  IC50: 74 nM

## CC[C@H](C)[C@H](NC(=O)C(F)F)C(=O)N1C[C@H]2[C@@H]([C@H]1C(=O)NN(C[C@@H]1CCNC1=O)C(=O)[C@@H](F)Cl)C2(C)C [Example 109, N-[(1S,2S)-1-[(1R,2S,5S)-2-[[[(2S)-2-chloro-2-fluoro-acetyl]-[[(3S)-2-oxopyrrolidin-3-yl]methyl]amino]carbamoyl]-6,6-dimethyl-3-azabicyclo[3.1.0]hexane-3-carbonyl]-2-methyl-butyl]-2,2-difluoro-acetamide]
[1]
  IC50: 14 nM
[2]
  IC50: 29 nM
[3]
  IC50: 86 nM
[4]
  IC50: 20 nM

## CC[C@H](C)[C@H](NC(=O)C(C)C)C(=O)N1C[C@H]2[C@@H]([C@H]1C(=O)NN(C[C@@H]1CCNC1=O)C(=O)[C@@H](F)Cl)C2(C)C [Example 110, N-[(1S,2S)-1-[(1R,2S,5S)-2-[[[(2S)-2-chloro-2-fluoro-acetyl]-[[(3S)-2-oxopyrrolidin-3-yl]methyl]amino]carbamoyl]-6,6-dimethyl-3-azabicyclo[3.1.0]hexane-3-carbonyl]-2-methyl-butyl]-2-methyl-propanamide]
[1]
  IC50: 24 nM
[2]
  IC50: 37 nM
[3]
  IC50: 96 nM
[4]
  IC50: 33 nM

## CC[C@@H](C)[C@H](NC(=O)C(F)F)C(=O)N1C[C@H]2[C@@H]([C@H]1C(=O)NN(C[C@@H]1CCNC1=O)C(=O)[C@H](F)Cl)C2(C)C [Example 112, N-[(1S,2R)-1-[(1R,2S,5S)-2-[[[(2R)-2-chloro-2-fluoro-acetyl]-[[(3S)-2-oxopyrrolidin-3-yl]methyl]amino]carbamoyl]-6,6-dimethyl-3-azabicyclo[3.1.0]hexane-3-carbonyl]-2-methyl-butyl]-2,2-difluoro-acetamide]
[1]
  IC50: 8 nM
[2]
  IC50: 22 nM
[3]
  IC50: 71 nM
[4]
  IC50: 14 nM

## CC[C@@H](C)[C@H](NC(=O)C1CC(F)(F)C1)C(=O)N1C[C@H]2[C@@H]([C@H]1C(=O)NN(C[C@@H]1CCNC1=O)C(=O)[C@H](F)Cl)C2(C)C [Example 114, N-[(1S,2R)-1-[(1R,2S,5S)-2-[[[(2R)-2-chloro-2-fluoro-acetyl]-[[(3S)-2-oxopyrrolidin-3-yl]methyl]amino]carbamoyl]-6,6-dimethyl-3-azabicyclo[3.1.0]hexane-3-carbonyl]-2-methyl-butyl]-3,3-difluoro-cyclobutanecarboxamide]
[1]
  IC50: 17 nM
[2]
  IC50: 29 nM
[3]
  IC50: 113 nM
[4]
  IC50: 25 nM
